Data on five molecules can be found in patent publication US11850263B2, “Nanoparticles conjugated with vasoactive intestinal peptide antagonists” (Emory University, priority 2017, dated 2023).

No end group written: not given here.

One data set concerns Bcl-2. Nature of the data set: Bcl-2 blot of protein lysates from patient T cell expansion cultures. It counts as cell-based, human. To be noted: lysates on days 7 and 14; actin loading control. Here is the method:
Protein lysates from patient T cell expansion cultures were prepared on days 7 and 14. Samples were run on an SDS-PAGE gel prior to transfer to a nitrocellulose membrane. The membrane was then probed for the pro-survival Bcl-2 protein, stripped, and then re-probed for actin as a loading control.

In a further data set the test system is E.G7-OVA cells. Put plainly: E.G7-OVA lymphoma model, adoptive transfer of T cells expanded with the compounds. The class given is in vivo, Mice. To be noted: OVA-expressing lymphoma model; T cells expanded 3 days with CD3/CD28 beads and IL-2, injected intravenously on day 7 of tumor growth. As to the method:
Mice were injected subcutaneously with 5×10^5 E.G7-OVA cells that were allowed to grow for 7 days until a palpable tumor formed. During this period, OT-I, OT-II, and B6 T cells were expanded with CD3/CD28 beads in the presence of IL-2 and the indicated compounds for 3 days. On day 7 of tumor growth, mice were injected intravenously with a combination of expanded OT-I, OT-II, and B6 T cells (2×10^6 OT-I, 1×10^6 OT-II, and 2×10^6 B6 cells) or 2×10^6 B6 T cells as a control. Mice were then monitored for tumor growth that was calculated as (L×W^2)/2. FIG. 5B is a tumor growth curve showing the rate of growth among groups over time. Expansion of mouse T cells in the presence of Idelalisib, VIPhyb, or a combination of both enhances their therapeutic efficacy in an OVA-expressing lymphoma model.

The test system of a further data set is DLBCL patient T cells. Put plainly: DLBCL patient T cell expansion for 14 days with CD3/CD28 beads and IL-2. The class given is cell-based, human.
In data set [1] the test system is senescent T cells from a patient with lymphoma. Put plainly: 10 day in vitro culture of senescent lymphoma patient T cells with anti-CD3/CD28 beads, flow cytometric analysis. The class given is cell-based, human. To be noted: for fraction of senescent T cells that lacked both CD27 and CD28: control 55.2%; for in vitro expansion of senescent T cells: as single agent or in combination. As to the method: Monocytes were depleted from the T cell sample, as monocytes are known to inhibit T cell expansion in cultures containing anti-CD3/CD28 beads. The effect of a range of idelalisib concentrations were compared alone and in combination with 3 uM VIP peptide antagonist (VIPhyb) or 1 ug/ml mast cell chymase, an enzyme that degrades endogenous VIP on T cell activation, differentiation and proliferation. Numbers of viable T cells were measured during a 10 day in vitro cultures as well as the T cell differentiation and activation profiles, focusing on the relative numbers of T cells with a senescent phenotype in which co-stimulatory receptors CD27 and CD28 are both absent (CD27−CD28−), to an activated phenotype, in which either CD27, CD28, or both co-stimulatory receptors are present (CD27+CD28+).
Aliquots of frozen patient apheresis products or PBMC from ficolled whole blood were rapidly thawed and rested overnight in complete RPMI 1640 supplemented with 10% fetal bovine serum, 100 U/mL penicillin, 100 μg/mL streptomycin, and 50 μM 2-mercaptoethanol (complete media). The following day, red blood cells were removed from apheresis products by ficoll gradient. The leukocytes were then enriched for T cells using an EasySep human T cell enrichment kit according to manufacturer's instructions. Cells were plated in 200 μL of complete media in each well of a 96 well flat-bottom plate. Compounds were added at the indicated concentrations, and the DMSO concentration was normalized to 0.1% for all wells. Anti-CD3/CD28 beads were added at a 1:1 bead:cell ratio. On day 7 post-stimulation, cells from each treatment were transferred to new media. Fresh compounds and beads were then added, and the cells were cultured for an additional 3 days. On day 10 post-initial stimulation, the beads were removed, and the cells were stained for flow cytometric analysis.
Cells were washed twice in PBS. The cells were also stained using a fixable viability dye. Surface markers were then stained by adding fluorochrome-conjugated antibodies to CD3, CD4, CD8, CD27, CD28, CD45RA, CD45RO, PD-1, and CCR7. To assess proliferation, half the cells were evaluated for expression of Ki67. Ki67 staining was performed using a FoxP3 intracellular staining kit. Just prior to running samples, Accucheck™ counting beads were added to each tube. Samples were acquired on a BD FACS Aria, and analysis was performed using FlowJo™ software. Viable cells were used in the analysis. The absolute numbers of cells was calculated for each population according to instructions provided by the manufacturer of the Accucheck™ counting beads.

Data set [2] has as its system luciferase B6 splenic T cells. Nature of the data set: One-way mixed lymphocyte reaction (MLR), luciferase B6 splenic T cells with irradiated FVB splenocytes. The class given is cell-based, mouse. To be noted: 3 days, daily addition of VIP and/or VIPhyb, 0-10 mmol/L [sic]. As to the method:
Proliferation of luciferase B6 splenic T cells cultured for 3 days in MLR with irradiated FVB splenocytes, with daily addition of VIP and/or VIPhyb to achieve the concentrations shown (0-10 mmol/L).
To explore the role of VIP signaling in allo-immune responses, one-way mixed lymphocyte reactions (MLR) were performed containing VIP and/or the antagonistic VIPhyb peptide. Addition of VIP decreased Luciferase T-cell proliferation in a dose-dependent manner, while adding VIPhyb increased T-cell proliferation.

For data set [3] the following is noted: cited from earlier work.
In data set [4] the test system is luciferase-expressing splenic T cells from B6 Luciferase mice. Put plainly: Bioluminescent MLR, B6 Luciferase splenic T cells with irradiated FVB splenic T cells (VIP, VIPhyb, VIPhyb-NP). The class given is cell-based, mouse. To be noted: 0 ug/mL to 975 ug/mL. The source says: Splenocytes were extracted from WT and VIP-KO mice treated with B16-F0 and B16-F10 melanoma, and analyzed with flow cytometry for Granzyme B (GrZ B) and CD8 expression. VIPhyb was conjugated to a biocompatible, non-toxic 30 nm NP through emulsion polymerization and tested for purity and stability. A mixed lymphocyte reaction (MLR) using luciferase-expressing splenic T cells from B6 Luciferase mice were co-cultured with irradiated splenic T cells from FVB mice. VIP, VIPhyb, and VIPhyb-NP at concentrations of 0 ug/mL to 975 ug/mL were added to the MLR on 3 consecutive days and their effect on T cell proliferation assessed with bioluminescent imaging.

Data set [5] deals with luciferase positive splenic T cells (B6 Luc). Put plainly: One-way allogeneic MLR, B6 Luc T cells with irradiated B6 Albino stimulator cells, IVIS average radiance. The class given is cell-based, mouse. Here is the method: Bioluminescent image of a 96-well MLR plate.
A one-way allogeneic mixed lymphocyte reaction (MLR) between luciferase positive splenic T cells (B6 Luc) and 20 Gy irradiated stimulator cells from B6 Albino mice were co-cultured at 37° C. in a 96-well black plate. VIPhyb-NP in concentrations 0-2.5 uM was added to each well, followed by VIP in concentrations of 0-10 uM, 30 minutes later. This treatment was administered daily for 3 days, and an IVIS spectrum was used to quantify photon intensity, which correlates to cell number, on day 3. An increase in average radiance indicates an increase in T cell proliferation.

The test system of data set [6] is T-cells from the anergic lymphoma patient. Nature of the data set: Culture of sorted lymphoma patient T-cells with anti-CD3/anti-CD28 beads (Ki67, PD-1 by flow cytometry). To be noted: addition of IL 12 to the cultures. It counts as cell-based, human. From the text:
Using high-speed cell sorting subsets of T-cells were isolated defined by their levels of CD27 and CD28 expression from the patient with relapsed lymphoma and a healthy control. CD3 positive T-cells with each of the four phenotypes defined by CD27 and CD28 expression were sorted and cultured in vitro in the presence of anti-CD^3/anti-CD28 beads. Total T-cells from healthy donors had 100% expression of the Ki67 proliferation marker following four days of culture. However, the corresponding total T-cell population from the patient with anergic T-cells following treatment for lymphoma had only 90% of T-cells expressing the Ki67 marker.
Following the daily addition of 3 uM VIPhyb to these cultures, the proportion of Ki67 positive T-cells from the anergic lymphoma patient was increased to 100%. […] In contrast, the T-cell subsets lacking expression of either CD27 or CD28 or both markers had impaired proliferated response when incubated with the anti-CD3/CD28 beads.
Addition of the antagonist VIPhyb augmented T-cell proliferation in the subsets lacking either CD27 or CD28.
In general terms: Flow cytometry measures light scatter and fluorescence of single cells or particles in a stream.

Where [7] appears, read: inclusion during T cell activation.

As for `CC[C@H](Nc1ncnc2[nH]cnc12)c1nc2cccc(F)c2c(=O)n1-c1ccccc1` [idelalisib, (S)-2-(1-(9H-purin-6-ylamino)propyl)-5-fluoro-3-phenylquinazolin-4(3H)-one], in the data set on Bcl-2, the “expression of Bcl-2 in lymphoma patient T cells” value is given as “increased”. Also, the “therapeutic efficacy of mouse T cells expanded in presence of the compounds” value in the data set on E.G7-OVA cells is “enhances”. Also, in the data set with DLBCL patient T cells, the “frequency of CD27+CD28+ cells” value was “increases” and the “frequency of CD27−CD28− cells” value is listed as “decreasing”. For the same molecule, in the data set with DLBCL patient T cells (setting [7]), the “number of viable T cells obtained” value is “increases”; the “proportion of naïve and central memory cells” value is “increases”. Also, the “fraction of senescent T cells that lacked both CD27 and CD28” value in [1] (10 nM idelalisib) came out at 16.1%. For the same molecule, the “numbers of effector memory T cells (Tem)” value in data set [1] (10-day cultures) was “increased”. Besides, the “in vitro expansion of senescent T cells” value in [1] was “significantly expanded”. Moreover, the “proportion of T cells co-expressing CD27 and CD28” value in [1] (idelalisib 1 uM or 100 nM, compared to control cultures) is listed as “significantly increased”.

HSDAVFTDNYTRLRKQMAVKKYLNSILN [VIP]: in data set [2], the “T-cell proliferation in MLR” value is on record as “decreased”. The half-life in vivo result in [3] was “less than two”.

Take “VIPhyb-NP: VIPhyb with C-terminal linker (SEQ ID NO: 13) conjugated to a 30 nm poloxamer-stabilized polypropylene sulfide nanoparticle (KPRRPYTDNYTRLRKQMAVKKYLNSILNGGGGSC; also: conjugated to polypropylene sulfide nanoparticle)”: the “dose dependence of effect on T cell proliferation” value in data set [4] is reported as “dose-dependent”. For the same molecule, the “effect on inhibitory effects of VIP on T cell proliferation in vitro” value in [4] (added on 3 consecutive days) is given as “counteracted the inhibitory effects of VIP”. The “average radiance (T cell proliferation)” value in data set [5] (VIPhyb-NP 0-2.5 uM daily for 3 days, read on day 3) is given as “significant dose-dependent increase”. For the same molecule, the “effect on immunosuppressive effects of VIP” value in data set [5] (VIPhyb-NP 0-2.5 uM, then VIP 0-10 uM 30 minutes later) is “able to counteract the immunosuppressive effects of VIP”.

B1: mast cell chymase: human mast cell chymase (CMA1), an enzyme that degrades endogenous VIP (protein, UniProt P23946 22-247, looked up)
Chymase: IIGGTECKPHSRPYMAYLEIVTSNGPSKFCGGFLIRRNFVLTAAHCAGRSITVTLGAHNITEEEDTWQKLEVIKQFRHPKYNTSTLHHDIMLLKLKEKASLTLAVGTLPFPSQFNFVPPGRMCRVAGWGRTGVLKPGSDTLQEVKLRLMDPQACSHFRDFDHNLQLCVGNPRKTKSAFKGDSGGPLLCAGVAQGIVSYGRSDAKPPAVFTRISHYRPWINQILQAN
As for B1, in [1] (1 μg per ml mast cell chymase), the “fraction of senescent T cells that lacked both CD27 and CD28” value came to 37.4%. Besides, in [1], the “in vitro expansion of senescent T cells” value is reported as “significantly expanded”.

B2: IL 12: IL 12 added to T-cell cultures (protein, UniProt P29459 23-219; P29460 23-328, looked up)
Interleukin-12 subunit alpha: RNLPVATPDPGMFPCLHHSQNLLRAVSNMLQKARQTLEFYPCTSEEIDHEDITKDKTSTVEACLPLELTKNESCLNSRETSFITNGSCLASRKTSFMMALCLSSIYEDLKMYQVEFKTMNAKLLMDPKRQIFLDQNMLAVIDELMQALNFNSETVPQKSSLEEPDFYKTKIKLCILLHAFRIRAVTIDRVMSYLNAS
Interleukin-12 subunit beta: IWELKKDVYVVELDWYPDAPGEMVVLTCDTPEEDGITWTLDQSSEVLGSGKTLTIQVKEFGDAGQYTCHKGGEVLSHSLLLLHKKEDGIWSTDILKDQKEPKNKTFLRCEAKNYSGRFTCWWLTTISTDLTFSVKSSRGSSDPQGVTCGAATLSAERVRGDNKEYEYSVECQEDSACPAAEESLPIEVMVDAVHKLKYENYTSSFFIRDIIKPDPPKNLQLKPLKNSRQVEVSWEYPDTWSTPHSYFSLTFCVQVQGKSKREKKDRVFTDKTSATVICRKNASISVRAQDRYYSSSWSEWASVPCS
Regarding B2, in data set [6], the “proliferation fraction of T-cells, CD28 negative and CD27 negative subsets” value was “significant impact in increasing the proliferation fraction of T-cells that were CD28 negative but not those that were CD27 negative”.
